Source: ChEMBL document CHEMBL6114980, “Single or double lipid-modified ultra-short antimicrobial peptides for treating infections caused by resistant bacteria” (Eur J Med Chem, 2025)
Values after ≈ are worked out from the molar mass of the structure shown. Active and inactive are the calls of the source. The rule behind the calls is not given here. Peptide text beside a SMILES is read from it. * marks the point of attachment. Decanoyl = CCCCCCCCCC(=O)*; Hexanoyl = CCCCCC(=O)*; Butyryl = CCCC(=O)*

Assays:
[1] = tested on: Cell membrane; assay: Induction of inner membrane permeabilization in Escherichia coli at 0.5 to 1 times MIC measured for 135 mins by absorbance based analysis
[2] = tested on: Acinetobacter baumannii; assay: Antibacterial activity against Acinetobacter baumannii ATCC 19606 assessed as reduction in bacterial growth incubated for 18 to 24 hrs by broth microdilution method; assay type: functional; conditions: time 18-24 hrs
[3] = tested on: Klebsiella pneumoniae; assay: Antibacterial activity against Klebsiella pneumoniae ATCC 700603 assessed as reduction in bacterial growth incubated for 18 to 24 hrs by broth microdilution method; assay type: functional; conditions: time 18-24 hrs
[4] = tested on: Escherichia coli; assay: Antibacterial activity against Escherichia coli ATCC 25922 assessed as reduction in bacterial growth incubated for 18 to 24 hrs by broth microdilution method; assay type: functional; conditions: time 18-24 hrs
[5] = tested on: Pseudomonas aeruginosa; assay: Antibacterial activity against Pseudomonas aeruginosa ATCC 27853 assessed as reduction in bacterial growth incubated for 18 to 24 hrs by broth microdilution method; assay type: functional; conditions: time 18-24 hrs
[6] = tested on: Enterococcus faecalis; assay: Antibacterial activity against Enterococcus faecalis ATCC 29212 assessed as reduction in bacterial growth incubated for 18 to 24 hrs by broth microdilution method; assay type: functional; conditions: time 18-24 hrs
[7] = tested on: Staphylococcus epidermidis; assay: Antibacterial activity against Staphylococcus epidermidis ATCC 12228 assessed as reduction in bacterial growth incubated for 18 to 24 hrs by broth microdilution method; assay type: functional; conditions: time 18-24 hrs
[8] = tested on: Bacillus subtilis; assay: Antibacterial activity against Bacillus subtilis ATCC 23857 assessed as reduction in bacterial growth incubated for 18 to 24 hrs by broth microdilution method; assay type: functional; conditions: time 18-24 hrs
[9] = tested on: Staphylococcus aureus; assay: Antibacterial activity against Staphylococcus aureus ATCC 25923 assessed as reduction in bacterial growth incubated for 18 to 24 hrs by broth microdilution method; assay type: functional; conditions: time 18-24 hrs

Row | SMILES | Activity [1] | MIC [2] | MIC [3] | MIC [4] | MIC [5] | MIC [6] | MIC [7] | MIC [8] | MIC [9]
1 | CC(C)(C)CC(C)(C)c1ccc(OCCO)cc1 | Active |  |  |  |  |  |  |  | 
2 | CCCCCC(=O)NCCCC[C@H](NC(=O)CCCCC)C(=O)N[C@@H](CCCCN)C(=O)N[C@@H](CCCCN)C(=O)N[C@@H](Cc1c[nH]c2ccccc12)C(=O)N[C@@H](Cc1c[nH]c2ccccc12)C(N)=O (Hexanoyl-K(Hexanoyl)KKWW-NH2) |  | 128 µM (≈ 124 µg/mL) | 128 µM (≈ 124 µg/mL) | 128 µM (≈ 124 µg/mL) | 64 µM (≈ 62.1 µg/mL) | 128 µM (≈ 124 µg/mL) | 128 µM (≈ 124 µg/mL) | 64 µM (≈ 62.1 µg/mL) | 128 µM (≈ 124 µg/mL)
3 | CCCCCC(=O)N[C@@H](CCCCN)C(=O)N[C@@H](CCCCN)C(=O)N[C@@H](Cc1c[nH]c2ccccc12)C(=O)N[C@@H](Cc1c[nH]c2ccccc12)C(N)=O (Hexanoyl-KKWW-NH2) |  | 128 µM (≈ 95.2 µg/mL) | 128 µM (≈ 95.2 µg/mL) | 128 µM (≈ 95.2 µg/mL) | 128 µM (≈ 95.2 µg/mL) | 128 µM (≈ 95.2 µg/mL) | 128 µM (≈ 95.2 µg/mL) | 128 µM (≈ 95.2 µg/mL) | 128 µM (≈ 95.2 µg/mL)

More lines, in order of falling MIC [2], values ahead:

Row | Activity [1] | MIC [2] | MIC [3] | MIC [4] | MIC [5] | MIC [6] | MIC [7] | MIC [8] | MIC [9] | SMILES
4 |  | 128 µM (≈ 117 µg/mL) | 128 µM (≈ 117 µg/mL) | 128 µM (≈ 117 µg/mL) | 128 µM (≈ 117 µg/mL) | 128 µM (≈ 117 µg/mL) | 128 µM (≈ 117 µg/mL) | 128 µM (≈ 117 µg/mL) | 128 µM (≈ 117 µg/mL) | CCCC(=O)NCCCC[C@H](NC(=O)CCC)C(=O)N[C@@H](CCCCN)C(=O)N[C@@H](CCCCN)C(=O)N[C@@H](Cc1c[nH]c2ccccc12)C(=O)N[C@@H](Cc1c[nH]c2ccccc12)C(N)=O (Butyryl-K(Butyryl)KKWW-NH2)
5 |  | 128 µM (≈ 91.6 µg/mL) | 128 µM (≈ 91.6 µg/mL) | 128 µM (≈ 91.6 µg/mL) | 128 µM (≈ 91.6 µg/mL) | 128 µM (≈ 91.6 µg/mL) | 128 µM (≈ 91.6 µg/mL) | 128 µM (≈ 91.6 µg/mL) | 128 µM (≈ 91.6 µg/mL) | CCCC(=O)N[C@@H](CCCCN)C(=O)N[C@@H](CCCCN)C(=O)N[C@@H](Cc1c[nH]c2ccccc12)C(=O)N[C@@H](Cc1c[nH]c2ccccc12)C(N)=O (Butyryl-KKWW-NH2)
6 |  | 32 µM (≈ 25.6 µg/mL) | 32 µM (≈ 25.6 µg/mL) | 16 µM (≈ 12.8 µg/mL) | 8 µM (≈ 6.4 µg/mL) | 32 µM (≈ 25.6 µg/mL) | 16 µM (≈ 12.8 µg/mL) | 4 µM (≈ 3.2 µg/mL) | 16 µM (≈ 12.8 µg/mL) | CCCCCCCCCC(=O)N[C@@H](CCCCN)C(=O)N[C@@H](CCCCN)C(=O)N[C@@H](Cc1c[nH]c2ccccc12)C(=O)N[C@@H](Cc1c[nH]c2ccccc12)C(N)=O (Decanoyl-KKWW-NH2)
7 |  | 16 µM (≈ 17.3 µg/mL) | 128 µM (≈ 139 µg/mL) | 16 µM (≈ 17.3 µg/mL) | 16 µM (≈ 17.3 µg/mL) | 16 µM (≈ 17.3 µg/mL) | 8 µM (≈ 8.66 µg/mL) | 8 µM (≈ 8.66 µg/mL) | 16 µM (≈ 17.3 µg/mL) | CCCCCCCCCC(=O)NCCCC[C@H](NC(=O)CCCCCCCCC)C(=O)N[C@@H](CCCCN)C(=O)N[C@@H](CCCCN)C(=O)N[C@@H](Cc1c[nH]c2ccccc12)C(=O)N[C@@H](Cc1c[nH]c2ccccc12)C(N)=O (Decanoyl-K(Decanoyl)KKWW-NH2)
